Experimental data published in US7902226B2, “Dehalogeno-compounds” (Daiichi Pharmaceutical Co., Ltd., priority 2000, dated 2011).
Values after ≈ are worked out from the molar mass of the structure shown. Counter-ions that a name gives are not always drawn.

Key:
Ser. marcescens, 10100 = assay: Antibacterial activity (MIC), standard method of the Japan Society of Chemotherapy; type: cell-based; conditions: Serratia marcescens
Method: (§1) Antibacterial activities of the compounds of this invention were measured in accordance to the standard method designated by the Japan Society of Chemotherapy, with the results shown as MIC values (microgram/ml) units in the following table. For comparison with the MIC values of the compounds of this invention, MIC values of levofloxacin (LVFX), ciprofloxacin (CPFX) and 7-[3-(R)-(1-aminocyclopropyl)pyrrolidin-1-yl]-6-fluoro-1-[2-(S)-fluoro-1-(R)-cyclopropyl]-8-methyl-1,4-dihydro-4-oxoquinoline-3-carboxylic acid (Reference drug 1), which is described in PCT/JP96/00208, are also shown in the table.

S. aureus, 870307 = assay: as above; type: cell-based; conditions: Staphylococcus aureus
Method: as §1

Str. pneumoniae J24 = assay: as above; type: cell-based; conditions: Streptococcus pneumoniae
Method: as §1

E. coli, NIHJ = assay: as above; type: cell-based; conditions: Escherichia coli
Method: as §1

[1] = system: Ps. maltophilia, IID-1275; assay: as above; type: cell-based; conditions: Stenotrophomonas maltophilia, IID1275
Method: as §1

Pr. vulgalis, 08601 = assay: as above; type: cell-based
Method: as §1

K. pneumoniae, Type 1 = assay: as above; type: cell-based; conditions: Klebsiella pneumoniae, TYPE1
Method: as §1

S. aureus, 209P = assay: as above; type: cell-based; conditions: Staphylococcus aureus
Method: as §1

Str. pyogenes, G-36 = assay: as above; type: cell-based; conditions: Streptococcus pyogenes, G36
Method: as §1

Ps. aeruginosa, 32121 = assay: as above; type: cell-based; conditions: Pseudomonas aeruginosa
Method: as §1

[2] = system: Str. faecalis, ATCC 19433; assay: as above; type: cell-based; conditions: Enterococcus faecalis, ATCC19433
Method: as §1

Ps. aeruginosa, 32104 = assay: as above; type: cell-based; conditions: Pseudomonas aeruginosa
Method: as §1

S. flexneri, 2A 5503 = assay: as above; type: cell-based; conditions: Shigella flexneri, 2A5503
Method: as §1

S. epidermidis, 56500 = assay: as above; type: cell-based; conditions: Staphylococcus epidermidis
Method: as §1

melting point	Structure (SMILES)	MIC (Ser. marcescens, 10100) [µg/mL]	MIC (S. aureus, 870307) [µg/mL]	MIC (Str. pneumoniae J24) [µg/mL]	MIC (E. coli, NIHJ) [µg/mL]	MIC [1] [µg/mL]	MIC (Pr. vulgalis, 08601) [µg/mL]	MIC (K. pneumoniae, Type 1) [µg/mL]	MIC (S. aureus, 209P) [µg/mL]	MIC (Str. pyogenes, G-36) [µg/mL]	MIC (Ps. aeruginosa, 32121) [µg/mL]	MIC [2] [µg/mL]	MIC (Ps. aeruginosa, 32104) [µg/mL]	MIC (S. flexneri, 2A 5503) [µg/mL]	MIC (S. epidermidis, 56500) [µg/mL]
249 to 252 °C (dec.)	C[C@H]1COc2c(N3CC[C@@H](C4(N)CC4)C3)ccc3c(=O)c(C(=O)O)cn1c23 (as salt: salt) [Example 9, 10-[3-(R)-(1-aminocyclopropyl)pyrrolidin-1-yl]-2,3-dihydro-3-(S)-methyl-7-oxo-7H-pyrido[1,2,3-de][1,4]benzoxazine-6-carboxylic acid]	–	–	–	–	–	–	–	–	–	–	–	–	–	–
174 °C	COc1c(N2CC[C@@H](C3(N)CCC3)C2)ccc2c(=O)c(C(=O)O)cn([C@@H]3C[C@@H]3F)c12 (hydrate or solvate) [Example 19, 7-[3-(R)-(1-aminocyclobutyl)pyrrolidin-1-yl]-1-[2-(S)-fluoro-1-(R)-cyclopropyl]-8-methoxy-1,4-dihydro-4-oxoquinoline-3-carboxylic acid]	–	–	–	–	–	–	–	–	–	–	–	–	–	–
–	O=C(O)c1cn(C2CC2)c2cc(N3CCNCC3)c(F)cc2c1=O [CPFX, ciprofloxacin, reference compound]	0.025 (≈ 0.0754 µM)	3.13 (≈ 9.45 µM)	0.1 (≈ 0.302 µM)	≤ 0.003	0.78 (≈ 2.35 µM)	≤ 0.003	0.025 (≈ 0.0754 µM)	0.1 (≈ 0.302 µM)	1.56 (≈ 4.71 µM)	0.025 (≈ 0.0754 µM)	0.78 (≈ 2.35 µM)	0.005 (≈ 0.0151 µM)	0.006 (≈ 0.0181 µM)	0.2 (≈ 0.604 µM)
–	COc1c(N2CC[C@@H](C3(N)CC3)C2)ccc2c(=O)c(C(=O)O)cn([C@@H]3C[C@@H]3F)c12 [Example 2, 7-[3-(R)-(1-aminocyclopropyl)pyrrolidin-1-yl]-1-[2-(S)-fluoro-1-(R)-cyclopropyl]-1,4-dihydro-8-methoxy-4-oxoquinoline-3-carboxylic acid]	0.1 (≈ 0.249 µM)	0.05 (≈ 0.125 µM)	0.006 (≈ 0.0149 µM)	≤ 0.003	0.2 (≈ 0.498 µM)	0.012 (≈ 0.0299 µM)	0.05 (≈ 0.125 µM)	≤ 0.003	0.006 (≈ 0.0149 µM)	0.05 (≈ 0.125 µM)	0.025 (≈ 0.0623 µM)	0.2 (≈ 0.498 µM)	0.012 (≈ 0.0299 µM)	0.012 (≈ 0.0299 µM)
216 to 218 °C	NC1([C@@H]2CCN(c3ccc4c(=O)c(C(=O)O)cn([C@@H]5C[C@@H]5F)c4n3)C2)CC1 [Example 4, 7-[3-(R)-(1-aminocyclopropyl)pyrrolidin-1-yl]-1-[2-(S)-fluoro-1-(R)-cyclopropyl]-1,4-dihydro-4-oxo-1,8-naphthylidine-3-carboxylic acid]	–	–	–	–	–	–	–	–	–	–	–	–	–	–
251 to 253 °C	NC1([C@@H]2CCN(c3ccc4c(=O)c(C(=O)O)cn([C@@H]5C[C@@H]5F)c4c3)C2)CC1 [Example 5, 7-[3-(R)-(1-aminocyclopropyl)pyrrolidin-1-yl]-1-[2-(S)-fluoro-1-(R)-cyclopropyl]-1,4-dihydro-4-oxoquinoline-3-carboxylic acid]	–	–	–	–	–	–	–	–	–	–	–	–	–	–
206 to 207.5 °C	NC1([C@@H]2CCN(c3ccc4c(=O)c(C(=O)O)cn(C5CC5)c4c3OC(F)F)C2)CC1 [Example 6, 7-[3-(R)-(1-aminocyclopropyl)pyrrolidin-1-yl]-1-cyclopropyl-8-difluoromethoxy-1,4-dihydro-4-oxoquinoline-3-carboxylic acid]	–	–	–	–	–	–	–	–	–	–	–	–	–	–
240 to 242 °C (dec.)	Cc1c(N2CC[C@@H](C3(N)CC3)C2)cc(N)c2c(=O)c(C(=O)O)cn([C@@H]3C[C@@H]3F)c12 [Example 7, 5-amino-7-[3-(R)-(1-aminocyclopropyl)pyrrolidin-1-yl]-1-[2-(S)-fluoro-1-(R)-cyclopropyl]-1,4-dihydro-8-methyl-4-oxoquinoline-3-carboxylic acid]	–	–	–	–	–	–	–	–	–	–	–	–	–	–
172 to 178 °C (dec.)	COc1c(N2CC[C@@H](C3(N)CC3)C2)cc(N)c2c(=O)c(C(=O)O)cn([C@@H]3C[C@@H]3F)c12 [Example 8, 5-amino-7-[3-(R)-(1-aminocyclopropyl)pyrrolidin-1-yl]-1-[2-(S)-fluoro-1-(R)-cyclopropyl]-1,4-dihydro-8-methoxy-4-oxoquinoline-3-carboxylic acid]	–	–	–	–	–	–	–	–	–	–	–	–	–	–
227 to 229 °C	CNC1([C@@H]2CCN(c3ccc4c(=O)c(C(=O)O)cn5c4c3OC[C@@H]5C)C2)CC1 [Example 13, 2,3-dihydro-3-(S)-methyl-10-[3-(R)-[1-(methylamino)cyclopropyl]pyrrolidin-1-yl]-7-oxo-7H-pyrido[1,2,3-de][1,4]benzoxazine-6-carboxylic acid]	–	–	–	–	–	–	–	–	–	–	–	–	–	–
128 to 130 °C	NC1([C@@H]2CCN(c3ccc4c(=O)c(C(=O)O)cn([C@@H]5C[C@@H]5F)c4c3Cl)C2)CC1 [Example 16, 7-[3-(R)-(1-aminocyclopropyl)pyrrolidin-1-yl]-8-chloro-1-[2-(S)-fluoro-1-(R)-cyclopropyl]-1,4-dihydro-4-oxoquinoline-3-carboxylic acid]	–	–	–	–	–	–	–	–	–	–	–	–	–	–
203 to 206 °C	Cc1c(N2CC[C@@H](C3(N)CC3)C2)cc(O)c2c(=O)c(C(=O)O)cn([C@@H]3C[C@@H]3F)c12 [Example 17, 7-[3-(R)-(1-aminocyclopropyl)pyrrolidin-1-yl]-1-[2-(S)-fluoro-1-(R)-cyclopropyl]-5-hydroxy-8-methyl-1,4-dihydro-4-oxoquinoline-3-carboxylic acid]	–	–	–	–	–	–	–	–	–	–	–	–	–	–
138 to 140 °C	N#Cc1c(N2CC[C@@H](C3(N)CC3)C2)ccc2c(=O)c(C(=O)O)cn([C@@H]3C[C@@H]3F)c12 [Example 18, 7-[3-(R)-(1-aminocyclopropyl)pyrrolidin-1-yl]-8-cyano-1-[2-(S)-fluoro-1-(R)-cyclopropyl]-1,4-dihydro-4-oxoquinoline-3-carboxylic acid]	–	–	–	–	–	–	–	–	–	–	–	–	–	–
–	C[C@H]1COc2c(N3CCN(C)CC3)c(F)cc3c(=O)c(C(=O)O)cn1c23 [LVFX, levofloxacin, reference compound]	0.1 (≈ 0.277 µM)	> 6.25	0.78 (≈ 2.16 µM)	0.012 (≈ 0.0332 µM)	0.39 (≈ 1.08 µM)	0.012 (≈ 0.0332 µM)	0.1 (≈ 0.277 µM)	0.2 (≈ 0.553 µM)	0.2 (≈ 0.553 µM)	0.1 (≈ 0.277 µM)	0.78 (≈ 2.16 µM)	0.2 (≈ 0.553 µM)	0.025 (≈ 0.0692 µM)	0.39 (≈ 1.08 µM)

Structure (SMILES)	melting point	MIC (Ser. marcescens, 10100) [µg/mL]	MIC (S. aureus, 870307) [µg/mL]	MIC (Str. pneumoniae J24) [µg/mL]	MIC (E. coli, NIHJ) [µg/mL]	MIC [1] [µg/mL]	MIC (Pr. vulgalis, 08601) [µg/mL]	MIC (K. pneumoniae, Type 1) [µg/mL]	MIC (S. aureus, 209P) [µg/mL]	MIC (Str. pyogenes, G-36) [µg/mL]	MIC (Ps. aeruginosa, 32121) [µg/mL]	MIC [2] [µg/mL]	MIC (Ps. aeruginosa, 32104) [µg/mL]	MIC (S. flexneri, 2A 5503) [µg/mL]	MIC (S. epidermidis, 56500) [µg/mL]
Cc1c(N2CC[C@@H](C3(N)CC3)C2)ccc2c(=O)c(C(=O)O)cn([C@@H]3C[C@@H]3F)c12 (as salt: HCl) (hydrate or solvate) [Example 1, 7-[3-(R)-(1-aminocyclopropyl)pyrrolidin-1-yl]-1-[2-(S)-fluoro-1-(R)-cyclopropyl]-1,4-dihydro-8-methyl-4-oxoquinoline-3-carboxylic acid]	228 to 230 °C	–	–	–	–	–	–	–	–	–	–	–	–	–	–
Cc1c(N2CC[C@@H](C3(N)CC3)C2)ccc2c(=O)c(C(=O)O)cn(C3CC3)c12 [Example 3, 7-[3-(R)-(1-aminocyclopropyl)pyrrolidin-1-yl]-1-cyclopropyl-1,4-dihydro-8-methyl-4-oxoquinoline-3-carboxylic acid]	230 to 233 °C	0.025 (≈ 0.068 µM)	0.025 (≈ 0.068 µM)	≤ 0.003	≤ 0.003	0.05 (≈ 0.136 µM)	≤ 0.003	0.012 (≈ 0.0327 µM)	≤ 0.003	0.003 (≈ 0.00816 µM)	0.025 (≈ 0.068 µM)	0.012 (≈ 0.0327 µM)	0.05 (≈ 0.136 µM)	≤ 0.003	0.003 (≈ 0.00816 µM)
CNC1([C@@H]2CCN(c3ccc4c(=O)c(C(=O)O)cn([C@@H]5C[C@@H]5F)c4c3C)C2)CC1 [Example 10, 1-[2-(S)-fluoro-1-(R)-cyclopropyl]-8-methyl-7-[3-(R)-[1-(methylamino)cyclopropyl]pyrrolidin-1-yl]-1,4-dihydro-4-oxoquinoline-3-carboxylic acid]	223 to 224 °C	0.05 (≈ 0.125 µM)	0.025 (≈ 0.0626 µM)	≤ 0.003	≤ 0.003	0.1 (≈ 0.25 µM)	0.006 (≈ 0.015 µM)	0.025 (≈ 0.0626 µM)	≤ 0.003	≤ 0.003	0.025 (≈ 0.0626 µM)	0.012 (≈ 0.03 µM)	0.1 (≈ 0.25 µM)	0.006 (≈ 0.015 µM)	0.006 (≈ 0.015 µM)
CNC1([C@@H]2CCN(c3ccc4c(=O)c(C(=O)O)cn([C@@H]5C[C@@H]5F)c4c3OC)C2)CC1 [Example 11, 1-[2-(S)-fluoro-1-(R)-cyclopropyl]-8-methoxy-7-[3-(R)-[1-(methylamino)cyclopropyl]pyrrolidin-1-yl]-1,4-dihydro-4-oxoquinoline-3-carboxylic acid]	213 to 215 °C	0.2 (≈ 0.481 µM)	0.05 (≈ 0.12 µM)	0.006 (≈ 0.0144 µM)	0.006 (≈ 0.0144 µM)	0.2 (≈ 0.481 µM)	0.012 (≈ 0.0289 µM)	0.1 (≈ 0.241 µM)	≤ 0.003	0.012 (≈ 0.0289 µM)	0.1 (≈ 0.241 µM)	0.05 (≈ 0.12 µM)	0.2 (≈ 0.481 µM)	0.012 (≈ 0.0289 µM)	0.012 (≈ 0.0289 µM)
